The structures appear in SMILES notation.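 Five compound concentrations were applied to cells in 96-well plates for 48 hours; endpoints were derived by simple linear interpolation of the resulting dose-response curve. TGI: total growth inhibition.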

Test systems include TK-10 renal; U251 CNS; MCF7 breast; SR leukemia; MDA-N; MDA-MB-435; SW-620 colon; HOP-62 NSCLC; SF-539 CNS; OVCAR-5 ovarian; EKVX NSCLC; CCRF-CEM leukemia; OVCAR-3 ovarian; HT29 colon; SN12C renal; CAKI-1 renal; PC-3 prostate; K-562 leukemia; SNB-19 CNS.
Common to all, as to assay: NCI anticancer screen, dose series, 48 h

Turning to `CCc1n[nH]c(=S)n1/N=C\c1ccc(-c2ccccc2Cl)o1`, the TGI in the assay on TK-10 renal was > 100 µM; with U251 CNS it was 97.4 µM; in the assay with MCF7 breast, > 100 µM; with SR leukemia, 53.5 µM; with MDA-N it was 54.1 µM; in the assay on MDA-MB-435, 48.4 µM. For the same molecule, the TGI is > 100 µM in the assay on SW-620 colon; > 100 µM in the assay on HOP-62 NSCLC; 61.9 µM in the assay on SF-539 CNS; > 100 µM with OVCAR-5 ovarian; > 100 µM in the assay with EKVX NSCLC; > 100 µM in the assay with CCRF-CEM leukemia. For the same molecule, the TGI in the assay on OVCAR-3 ovarian is > 100 µM; in the assay with HT29 colon, > 100 µM; with SN12C renal, > 100 µM; in the assay on CAKI-1 renal, > 100 µM; in the assay with PC-3 prostate, > 100 µM; in the assay on K-562 leukemia, 53.2 µM. Further, in the assay on SNB-19 CNS, the TGI is > 100 µM.

For the molecule `N#Cc1c(-c2ccc(Cl)cc2)cc(-c2ccc(Nc3ccnc4cc(C(F)(F)F)ccc34)cc2)[nH]c1=O`, the TGI in the assay on TK-10 renal is 63.2 µM; in the assay on U251 CNS, > 100 µM; in the assay on MCF7 breast, > 100 µM; in the assay with SR leukemia it was 8.93 µM; in the assay with MDA-N, 11.9 µM; with MDA-MB-435 it was 10.2 µM. Also, the TGI in the assay on SW-620 colon is > 84.2 µM; in the assay on HOP-62 NSCLC, > 57.7 µM; in the assay on SF-539 CNS it was 18.5 µM; with OVCAR-5 ovarian, > 65 µM; with EKVX NSCLC, > 100 µM; in the assay with CCRF-CEM leukemia it was 11 µM. The TGI in the assay on OVCAR-3 ovarian is 20.6 µM; with HT29 colon, > 48.9 µM; in the assay on SN12C renal, > 100 µM; with CAKI-1 renal, > 64.3 µM; in the assay on PC-3 prostate it was > 100 µM; in the assay with K-562 leukemia, 15.6 µM. The TGI in the assay on SNB-19 CNS worked out at 34.3 µM.

In the case of `COc1ccccc1C1SCC(=O)N1c1ccc(-n2c(-c3ccccc3)nc3ccccc3c2=O)cc1` (stereo unspecified), the TGI with TK-10 renal, in the assay with U251 CNS, in the assay with MCF7 breast, in the assay with SR leukemia, with MDA-N and in the assay with MDA-MB-435 was > 100 µM in each case. For the same molecule, the TGI in the assay with SW-620 colon, with HOP-62 NSCLC, with SF-539 CNS, in the assay on OVCAR-5 ovarian, in the assay on EKVX NSCLC and with CCRF-CEM leukemia was > 100 µM throughout. For the same molecule, the TGI in the assay with OVCAR-3 ovarian, in the assay with HT29 colon, with SN12C renal, in the assay on CAKI-1 renal, with PC-3 prostate and in the assay on K-562 leukemia was > 100 µM each time. Further, the TGI in the assay on SNB-19 CNS is > 100 µM.

Consider `O=C1/C(=C/c2cccnc2)C(n2cccc2)c2c(Br)sc(Br)c21` (stereo unspecified), for which the TGI in the assay with TK-10 renal was determined as 4.28 µM; in the assay with U251 CNS, 3.08 µM; in the assay with MCF7 breast it was 4.02 µM; in the assay with SR leukemia, 6.37 µM; in the assay with MDA-N, 4.24 µM; in the assay on MDA-MB-435, 3.42 µM. Also, the TGI with SW-620 colon was > 21.9 µM; with HOP-62 NSCLC it was 7.36 µM; with SF-539 CNS it was 9.5 µM; in the assay on OVCAR-5 ovarian, 31.9 µM; in the assay on EKVX NSCLC, 4.1 µM; in the assay on CCRF-CEM leukemia, 10.1 µM. The TGI worked out at 3.31 µM with OVCAR-3 ovarian; 11.1 µM with HT29 colon; 14.2 µM in the assay with SN12C renal; 7.51 µM in the assay with CAKI-1 renal; 4.86 µM in the assay with PC-3 prostate; 7.39 µM with K-562 leukemia. This molecule registered a TGI with SNB-19 CNS of 9.65 µM.

On to `O=c1[nH]nc(Cc2ccccc2)n1/N=C/c1c(O)ccc2ccccc12`, for which the TGI in the assay on TK-10 renal was > 100 µM; in the assay on U251 CNS, 38.6 µM; in the assay on MCF7 breast it was > 100 µM; in the assay with SR leukemia, 59.9 µM; in the assay on MDA-N it was > 100 µM; in the assay on MDA-MB-435, > 100 µM. In addition, the TGI in the assay with SW-620 colon is > 100 µM; with SF-539 CNS it was 42.9 µM; in the assay with EKVX NSCLC, 57.8 µM; with CCRF-CEM leukemia, > 100 µM; in the assay with OVCAR-3 ovarian, 47.5 µM; in the assay on HT29 colon, 83.9 µM. The TGI with SN12C renal was > 100 µM; with CAKI-1 renal, 88.8 µM; in the assay on PC-3 prostate, 64 µM; in the assay on K-562 leukemia it was 64.4 µM; in the assay with SNB-19 CNS, 46.5 µM.

For `COc1cc(N(CCC#N)CCC#N)ccc1/C=C1\SC(=S)NC1=O`, the TGI in the assay on TK-10 renal, in the assay with U251 CNS, in the assay on MCF7 breast, in the assay with SR leukemia, in the assay with MDA-N and in the assay on MDA-MB-435 was > 100 µM each time. For the same molecule, the TGI in the assay with SW-620 colon, in the assay on HOP-62 NSCLC, in the assay with SF-539 CNS, in the assay on OVCAR-5 ovarian, in the assay with EKVX NSCLC and with CCRF-CEM leukemia was > 100 µM each time. The TGI with OVCAR-3 ovarian, in the assay on HT29 colon, in the assay on SN12C renal, with CAKI-1 renal, with PC-3 prostate and in the assay on K-562 leukemia was > 100 µM in each case. Moreover, the TGI in the assay on SNB-19 CNS was > 100 µM.

For the molecule `COC(OC)C1OC(CO)C(n2cc(C)c(=O)[nH]c2=O)C1O` (stereo unspecified), the TGI with TK-10 renal, in the assay on U251 CNS, in the assay on MCF7 breast, in the assay on SR leukemia, in the assay on MDA-N and with MDA-MB-435 was > 100 µM throughout. In addition, the TGI in the assay with SW-620 colon, in the assay with HOP-62 NSCLC, in the assay with SF-539 CNS, with OVCAR-5 ovarian, in the assay on EKVX NSCLC and in the assay with CCRF-CEM leukemia was > 100 µM throughout. The TGI with OVCAR-3 ovarian, in the assay with HT29 colon, in the assay on SN12C renal, with CAKI-1 renal, with PC-3 prostate and in the assay on K-562 leukemia was > 100 µM throughout. In addition, in the assay on SNB-19 CNS, the TGI is > 100 µM.
